Entries after “also recorded” stand apart in the source; their conditions may differ. Where two headings read alike, the source gives them in different places.
Key:
[1] = Absorption of capsules of Capsule formulation 5 in Beagle dogs (Example 3-4); format: in vivo; details: dog, plasma; mean of four Beagle dogs, oral, 2.67 mg/kg; read-out: BA % (Mean, average bioavailability)
Description: Capsule of Capsule formulation 5 as prepared in Example 2, 10 mg of Compound I per capsule.
Solutions: 5% DMSO+95% (6% HP-β-CD solution)
Animals: Four Beagle Dogs.
(1) Administration of capsules. All animals fasted for 12 h or longer before drug administration, and food was supplied 4 h after drug administration, with always ad libitum access to water. Beagle dogs were orally given the capsule of Capsule formulation 5 as prepared in Example 2 (two capsules for each Beagle, 10 mg of Compound I per capsule) in a single dose, and 200 μL of blood was collected for each animal, via the small saphenous vein, immediately prior to the administration (0 h) and 0.17 h, 0.50 h, 0.75 h, 1.0 h, 2.0 h, 4.0 h, 6.0 h, 8.0 h, 12 h and 24 h after the administration. The collected blood was stored in a dry tube with heparin (normal saline containing 0.1% heparin sodium). (2) Plasma preparation. The whole blood samples collected in step (1) were subject to centrifugation at a low speed (8000 r/min, 6 min, 4° C.) to separate the plasma (the whole blood was stored in a mobile freezer at about 0 to 4° C., and plasma had to be separated within 30 minutes after the blood collection), and the plasma was kept in dark in a freezer at −70° C. (or lower) for future analysis.

[2] = Safety, tolerability and pharmacokinetics in patients having chronic kidney disease (Example 9); format: in vivo, human; details: human, plasma, oral, CKD patients
Source text: (§1) The patients in this example were those having chronic kidney disease with symptoms of renal failure, proteinuria, acute kidney injury, glomerular nephritis, renal cyst, urinary frequency, renal calculus, obstructive uropathy, and etc. These patients also had other diseases or implications such as diabetes mellitus, hyperlipidemia, hypercholesterolemia, hypertension, peripheral vascular diseases, coronary artery disease, and etc.
(§2) These patients continued to take the medications that they had prior to the present clinical trial, the medications being, for example, angiotensin converting enzyme inhibitors, such as Lisinopril, Benazepril, Enalapril, and Enalapril Maleate; angiotensin II receptor blockers, such as Valsartan and Losartan; calcium channel blockers, such as Amlodipine, and Nifedipine; diuretics, such as Furosemide; beta-receptor blockers, such as Metoprolol succinate, Metoprolol tartrate, Carvedilol, and Atenolol; and antilipemic drugs, such as Simvastatin, Atorvastatin, Fenofibrate, Pravastatin, and Rosuvastatin.
(§3) In this example, the administration dose referred to the amount of Compound I, although the pharmaceutical composition was administered. Two groups of subjects were administered once a day for 56 consecutive days at the daily doses of 0.5 mg (1 capsule for each administration, 0.5 mg of Compound I per capsule) and 2.5 mg (1 capsule for each administration, 2.5 mg of Compound I per capsule), respectively, with 6 subjects for the 0.5 mg/day dose group and also 6 for the 2.5 mg/day dose group. The capsules used here were the capsules prepared in Example 2, i.e., the capsules of Capsule formulation 3 (the capsule with 0.5 mg of Compound I), and Capsule formulation 4 (the capsule containing 2.5 mg of Compound I).
(§4) Plasma samples were collected to measure plasma drug concentration, and the pharmacokinetic parameters were analyzed using the non-compartment model. Serum samples were collected to measure serum potassium levels.

[3] = tested on: patients having chronic kidney disease; assay: as above; format: in vivo, human; details: CKD patients; for UACR decreased: at the 8th week; for Predicated AUCtau: predicted from the 0.5 mg/day group
Source text: as §1, §2, §3, §4

[4] = Effect of surfactants on absorption in SD rats (Example 4-1); details: rat, plasma, oral, 1 mg/kg
Description: Blood collection: The animals were fixed and had their tails warmed in a water bath 10 min prior to blood collection; about 100 μL of blood was collected through the tail vein for each animal and put into an anticoagulation tube containing hepatin; the blood samples were subject to centrifugation at 8000 rpm for 6 min at 4° C. to obtain plasma samples, which had to be obtained within 30 minutes after blood was collected; the plasma samples were stored in a freezer at −80° C. for future tests.
Sample analysis: 50 μL of each plasma sample from the freezer was transferred to a centrifugal tube; 100 μL of water and 400 μL of MTBE standard solution (50 ng/mL) were added into the tube and well mixed with the plasma; the obtained mixture was mixed for 10 minutes using a vortex mixer and then subject to centrifugation for 5 minutes (12000 r/min); 300 μL of the supernatant was transferred to another centrifugal tube and blown dry with nitrogen gas; the resultant substance was dissolved in 200 μL of a solution consisting of methanol and water at a ratio of 1:1, of which 20 μL was used for the LC-MS/MS measurement.
Data processing: the compound concentration was output by Analyst 1.6.1 (AB Sciex); the means, standard deviations, and variation coefficients were calculated using Microsoft Excel (no calculation needed if these parameters were directed output by Analyst 1.6.1), and pharmacokinetic parameters were determined using the NCA analysis object in Pharsight Phoenix 6.3.

In the case of `N#Cc1ccc(N2N=C3c4ccc(C(=O)N5CCC(O)CC5)nc4CC[C@@H]3[C@@H]2C2CCCC2)cc1Cl` [Compound I, 2-chloro-4-[(3S,3aR)-3-cyclopentyl-7-(4-hydroxylpiperidine-1-carbonyl)-3,3a,4,5-tetrahydro-2H-pyrazolo[3,4-f]quinolin-2-yl]benzonitrile], the bioavailability [1] is reported as 56.5%, the AUC ([2]; 0.5 mg, mean AUC plus the standard deviation at 0.5 mg, read-out: upper limit of AUC that is safe) is reported as 885 ng·h/mL and the AUC ([2]; 0.5 mg, mean AUC plus twice the standard deviation at 0.5 mg, read-out: upper limit of AUC that is safe) is reported as 1120 ng·h/mL. The AUC ([2]; 0.5 mg/day, administered for one day at 0.5 mg/day, read-out: steady-state AUCtau) was at least 106 ng·h/mL, the AUC ([2]; 0.5 mg/day, multiple doses 0.5 mg/day, read-out: average steady-state AUCtau) was 652 ± 232 ng·h/mL and the AUC ([2]; 2.5 mg, mean AUC plus the standard deviation at 2.5 mg, read-out: upper limit of AUC that is safe) was 2890 ng·h/mL. The AUC ([2]; 2.5 mg, mean AUC plus twice the standard deviation at 2.5 mg, read-out: upper limit of AUC that is safe) was 3170 ng·h/mL, the AUC ([2]; 2.5 mg/day, multiple doses 2.5 mg/day, read-out: average safe steady-state AUCtau) was 2610 ± 280 ng·h/mL and the UACR decreased ([3]; 0.5 mg/day) was 58.9%. The UACR decreased ([3]; 2.5 mg/day) was 50.7%, the “UACR decreased compared to the baseline” value ([3]; administered for one day at 0.5 mg/day) was at least 30.5% and the “AUC individual variation: highest AUC vs lowest AUC subject” value ([3]; capsule, multiple doses 2.5 mg daily) was 2.27 times. The “AUC individual variation: highest AUC vs lowest AUC subject” value ([3]; capsules, multiple doses 0.5 mg daily) was 2.14 times, the “Predicated AUCtau” value ([3]; dose 0.1 mg) was 130.5 ng·h/mL and the “Predicated AUCtau” value ([3]; dose 0.15 mg) was 195.8 ng·h/mL. The “Predicated AUCtau” value ([3]; dose 0.2 mg) was 261 ng·h/mL, the “Predicated AUCtau” value ([3]; dose 0.25 mg) was 326.3 ng·h/mL and the “Predicated AUCtau” value ([3]; dose 0.3 mg) was 391.5 ng·h/mL. The “Predicated AUCtau” value ([3]; dose 1.0 mg) was 1305 ng·h/mL, the “Predicated AUCtau” value ([3]; dose 2.0 mg) was 2610 ng·h/mL and the “Predicated AUCtau” value ([3]; dose 2.5 mg) was 3262.5 ng·h/mL. The “serum potassium level (observation)” value ([3]; multiple doses 0.5 mg/day) was “no elevated serum potassium level was observed”, the “blood pressures and UACR (observation)” value ([3]; multiple doses 0.5 mg/day or 2.5 mg/day) was “significantly decrease in blood pressures and urine albumin-to-creatinine ratio (UACR)” and the “serum potassium level (observation)” value ([3]; multiple doses 2.5 mg/day) was “serum potassium levels were elevated; also recorded: mild increase of the serum potassium level was observed in one subject; also recorded: In one subject, the serum potassium level slightly increased”. The bioavailability [4] was 64.7%.
